Assay [1] in a line: Antagonist activity at CCR2 in human THP1 cells assessed as inhibition of CCL2-induced chemotaxis in presence of 1% human serum.
The nature of assay [2]: Antagonist activity at CCR2 in human THP1 cells assessed as inhibition of CCL2-induced chemotaxis in presence of 1% fetal bovine serum.

A word on the Ki: it is a measure of affinity in units of concentration, obtained from inhibition or displacement.

As for `O=C(O)c1ccccc1Oc1ccccc1NS(=O)(=O)c1ccc(Cl)cc1`, the values for the inhibition constant (Ki) in assay [1] and in assay [2] were 0.398 µM and 398 nM, respectively.

With `O=C(O)c1c(F)cccc1Oc1ccc(C(F)(F)F)cc1NS(=O)(=O)c1ccc(Cl)cc1`, the Ki in assay [1] worked out at 10 µM; in assay [2], 158 nM.

Regarding `O=C(O)c1ccccc1Oc1c(F)cc(C(F)(F)F)cc1NS(=O)(=O)c1ccc(Cl)cc1`, the Ki in assay [1] was found to be 12.6 µM; in assay [2], 63.1 nM.

(Values after BindingDB's records for doi:10.1016/j.bmcl.2010.04.142 (Glaxosmithkline, 2010).)
